Laboratory results as given in ChEMBL document CHEMBL1138960 (Bioorg Med Chem Lett, 2006).
Converted amounts (≈) assume the structure as drawn. The source made the active and inactive calls. The rule behind the calls is not given here.

Assays:
[1] = tested on: Rattus norvegicus; assay: Conversion of prodrug to parent in rat at 3 mg/kg, iv [100*AUC (JNJ-7706621) / AUC (prodrug)]; format: ADME, organism-based; design: dose 3 mg/kg, route intravenous; settings: in vivo
[2] = tested on: HeLa; assay: Antiproliferative activity against human HeLa cells; format: functional, cell-based
[3] = tested on: HCT-116; assay: Antiproliferative activity against human HCT116 cells; format: functional, cell-based
[4] = tested on: A-375; assay: Antiproliferative activity against human A375 cells; format: functional, cell-based
[5] = Solubility at pH 2.0; format: physicochemical; settings: buffer
[6] = Solubility at pH 7.4; format: physicochemical; settings: buffer
[7] = AUC in rat at 3 mg/kg, iv; format: ADME, organism-based; design: dose 3 mg/kg, route intravenous; settings: plasma
[8] = Tmax in rat; format: ADME, organism-based; settings: in vivo
[9] = Half life in rat; format: ADME, organism-based; settings: in vivo
[10] = molecular target: Cyclin-dependent kinase 2 (Homo sapiens, UniProt P24941); assay: Inhibition of CDK2
[11] = molecular target: Cyclin-dependent kinase 1 (Homo sapiens, UniProt P06493); assay: Inhibition of CDK1
[12] = tested on: A-375; assay: Antitumor activity in human melanoma A375 cell line using tumor xenograft model after 28 days at 100 mg/kg, ip; format: functional, organism-based; design: dose 100 mg/kg
[13] = tested on: Rattus norvegicus; assay: AUC in rat after administration as its prodrug N-(4-(5-amino-1-(2,6-difluorobenzoyl)-1H-1,2,4-triazol-3-ylamino)phenylsulfonyl)-3-(4-methylpiperazin-1-yl)propanamide at 3 mg/kg, iv; format: ADME, organism-based, Plasma; design: dose 3 mg/kg, route intravenous; settings: in vivo
[14] = tested on: Rattus norvegicus; assay: AUC in rat after administration as its prodrug 2-amino-N-(4-(5-amino-1-(2,6-difluorobenzoyl)-1H-1,2,4-triazol-3-ylamino)phenylsulfonyl)acetamide at 3 mg/kg, iv; format: ADME, organism-based, Plasma; design: dose 3 mg/kg, route intravenous; settings: in vivo
[15] = tested on: Rattus norvegicus; assay: AUC in rat after administration as its prodrug N-(4-(5-amino-1-(2,6-difluorobenzoyl)-1H-1,2,4-triazol-3-ylamino)phenylsulfonyl)-2-(2-methoxyethoxy)acetamide at 3 mg/kg, iv; format: ADME, organism-based, Plasma; design: dose 3 mg/kg, route intravenous; settings: in vivo
[16] = tested on: Rattus norvegicus; assay: AUC in rat after administration as its prodrug ethyl 4-(4-(5-amino-1-(2,6-difluorobenzoyl)-1H-1,2,4-triazol-3-ylamino)phenylsulfonamido)-4-oxobutanoate at 3 mg/kg, iv; format: ADME, organism-based, Plasma; design: dose 3 mg/kg, route intravenous; settings: in vivo
[17] = tested on: Rattus norvegicus; assay: AUC in rat after administration as its prodrug (R)-2-amino-N-(4-(5-amino-1-(2,6-difluorobenzoyl)-1H-1,2,4-triazol-3-ylamino)phenylsulfonyl)-3-hydroxypropanamide at 3 mg/kg, iv; format: ADME, organism-based, Plasma; design: dose 3 mg/kg, route intravenous; settings: in vivo
[18] = Oral bioavailability in nude mice; format: ADME, organism-based; settings: mouse, in vivo
[19] = Oral bioavailability in rat; format: ADME, organism-based; settings: in vivo
[20] = tested on: A-375; assay: Antitumor activity in human melanoma A375 cell line using tumor xenograft model at 100 mg/kg, ip; format: functional; settings: A-375, ip, route intraperitoneal, read-out: TGI
[21] = tested on: Rattus norvegicus; assay: AUC in rat after administration as its prodrug N-(4-(5-amino-1-(2,6-difluorobenzoyl)-1H-1,2,4-triazol-3-ylamino)phenylsulfonyl)-3-morpholinopropanamide at 3 mg/kg, iv; format: ADME, organism-based, Plasma; design: dose 3 mg/kg, route intravenous; settings: in vivo
[22] = tested on: Rattus norvegicus; assay: AUC in rat after administration as its prodrug 4-(4-(5-amino-1-(2,6-difluorobenzoyl)-1H-1,2,4-triazol-3-ylamino)phenylsulfonamido)-4-oxobutanoic acid at 3 mg/kg, iv; format: ADME, organism-based, Plasma; design: dose 3 mg/kg, route intravenous; settings: in vivo

Sequence of Cyclin-dependent kinase 1 (P06493 whole entry): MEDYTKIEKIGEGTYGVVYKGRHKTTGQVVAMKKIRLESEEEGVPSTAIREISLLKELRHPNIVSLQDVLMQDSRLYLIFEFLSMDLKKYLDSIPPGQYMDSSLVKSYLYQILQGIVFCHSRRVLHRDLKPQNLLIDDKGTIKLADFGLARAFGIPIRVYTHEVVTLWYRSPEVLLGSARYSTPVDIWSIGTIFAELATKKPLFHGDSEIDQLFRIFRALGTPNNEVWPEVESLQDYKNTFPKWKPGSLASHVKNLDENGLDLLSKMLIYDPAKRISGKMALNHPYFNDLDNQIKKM

Compound | Activity [1] [%] | IC50 [2] [µM] | IC50 [3] [µM] | IC50 [4] [µM] | solubility [5] [µg/mL] | solubility [6] [µg/mL] | AUC [7] [µM·h] | Tmax [8] [min] | half-life [9] [min] | IC50 [10] [nM] | also measured
COCCOCC(=O)NS(=O)(=O)c1ccc(Nc2nc(N)n(C(=O)c3c(F)cccc3F)n2)cc1 | 18 | > 10 | > 10 | > 100 | 5.4 (≈ 10.6 µM) | > 1000 | 42.9 | 4.8 | 9.6 | 247 | –
Nc1nc(Nc2ccc(S(=O)(=O)NC(=O)CCC(=O)O)cc2)nn1C(=O)c1c(F)cccc1F | 38 | 31.9 | > 100 | 20.2 | 0.7 (≈ 1.42 µM) | > 1000 | 47 | 4.8 | 9.6 | 71 | Activity [12]: inactive
CCOC(=O)CCC(=O)NS(=O)(=O)c1ccc(Nc2nc(N)n(C(=O)c3c(F)cccc3F)n2)cc1 | 40 | 60.2 | 40.1 | > 10 | 0.2 (≈ 0.383 µM) | 210 (≈ 402 µM) | 72.2 | 4.8 | 9.6 | 62 | –
CN1CCN(CCC(=O)NS(=O)(=O)c2ccc(Nc3nc(N)n(C(=O)c4c(F)cccc4F)n3)cc2)CC1 | 4 | > 100 | > 10 | > 100 | > 1000 | 820 (≈ 1490 µM) | 23.2 | 4.8 | 9.6 | 266 | –
Nc1nc(Nc2ccc(S(=O)(=O)NC(=O)CCN3CCOCC3)cc2)nn1C(=O)c1c(F)cccc1F | 7 | 20.9 | 50.8 | > 100 | 14 (≈ 26.1 µM) | 4.7 (≈ 8.78 µM) | 20.5 | 4.8 | 9.6 | 118 | –

Second part, led by results:

Activity [1] [%] | IC50 [2] [µM] | IC50 [3] [µM] | IC50 [4] [µM] | solubility [5] [µg/mL] | solubility [6] [µg/mL] | AUC [7] [µM·h] | Tmax [8] [min] | half-life [9] [min] | IC50 [10] [nM] | Compound | also measured
31 | 14.9 | 36.9 | 9.45 | 130 (≈ 288 µM) | 200 (≈ 443 µM) | 11.8 | 4.8 | 9.6 | – | NCC(=O)NS(=O)(=O)c1ccc(Nc2nc(N)n(C(=O)c3c(F)cccc3F)n2)cc1 | –
8 | 4.02 | 71.2 | > 10 | 440 (≈ 914 µM) | > 1000 | 8.15 | 4.8 | 9.6 | 140 | Nc1nc(Nc2ccc(S(=O)(=O)NC(=O)[C@H](N)CO)cc2)nn1C(=O)c1c(F)cccc1F | IC50 [11]: 1410 nM
– | 0.284 | 0.254 | 0.447 | 6 (≈ 15.2 µM) | – | – | 4.8 | 9.6 | – | Nc1nc(Nc2ccc(S(N)(=O)=O)cc2)nn1C(=O)c1c(F)cccc1F [JNJ-7706621] | AUC [13]: 0.93 µM·h; AUC [14]: 3.67 µM·h; AUC [15]: 7.62 µM·h; AUC [16]: 29.1 µM·h; AUC [17]: 0.63 µM·h; bioavailability [18]: 2%; bioavailability [19]: 8%; inhibition in vivo at 100 mg/kg [20]: 95%; AUC [21]: 1.4 µM·h; AUC [22]: 18 µM·h
